# Earlier results in patent publication US10590413B2, “Chiral control” (WAVE LIFE SCIENCES LTD., priority 2012, dated 2020).
# Where two headings read alike, the source gives them in different places. [Rp] = phosphorothioate linkage, Rp; [5mC] = 5-methylcytosine
# Assays:
# Mouse B Cells = conditions: mean and std. dev. of at least 3 experiments, compared to wells with no added ODN, cited from earlier work
# [1] = system: Murine IL-6 production and B cell activation; conditions: cited from earlier work; for IL-6 (pg/ml) CH12.LX: CH12.LX cells; for SI (stimulation index, [3H] uridine uptake, fold increase from unstimulated control): cells stimulated with 20 μM CpG O-ODN; for SI (stimulation index, [3H] uridine uptake, fold increase from unstimulated control) / SI (stimulation index, [3H] uridine uptake): mean ± SD of triplicates; for SI (stimulation index, [3H] uridine uptake): fold increase from unstimulated control, 20 μM CpG O-ODN; for IgM: unstimulated culture 547 ± 82 ng/ml; for IL-6 (pg/ml) SPLENIC B CELL: splenic B cells
# human PBMC = conditions: cited from earlier work
# [2] = unstimulated control ≤10 pg/ml, US 6,239,116 Table 2
# [3] = ODN 12 μg/ml, 4 hr, 10% autologous serum, level above wells with no ODN, ELISA
# [4] = ODN 12 μg/ml, 24 hr, 10% autologous serum, level above wells with no ODN, ELISA
Substance,"Stimulation Index, 3H Uridine (Mouse B Cells; US 6,239,116 Table 1)","Stimulation Index, IgM Production (Mouse B Cells; US 6,239,116 Table 1)","Stimulation Index, 3H Uridine (Mouse B Cells)",other results
3Dg (DNA GAGAACGCTCCAGCACTGAT; chemistry not fully specified) [Oligonucleotide 3Dg],6.1 ± 1.5,18.6 ± 1.5,6.1 ± 1.5,–
1c (DNA GCTAGACGTTAGCGT; chemistry not fully specified) [Oligonucleotide 1c],10.3 ± 4.4,9.5 ± 1.8,10.3 ± 4.4,–
1615 (DNA TCCATGGCGGTCCTGATGCT; chemistry not given here) [Oligonucleotide 1615],–,–,–,"IL-6 (pg/ml) CH12.LX [1]: 1201 ± 155 pg/mL; IL-6 (pg/ml) CH12.LX [1, 2]: 1201 ± 155 pg/mL; SI (stimulation index, [3H] uridine uptake, fold increase from unstimulated control) [1]: 3.7 ± 0.3; SI (stimulation index, [3H] uridine uptake) [1]: 3.7 ± 0.3; IgM ([1]; measured by ELISA): 3212 ± 617 ng/mL; IL-6 (pg/ml) SPLENIC B CELL [1]: 850 ± 202 pg/mL; IL-6 (pg/ml) SPLENIC B CELL [1, 2]: 850 ± 202 pg/mL; TNF-α (human PBMC; [3]): 145 pg/mL; GM-CSF (human PBMC; [4]): 45 pg/mL; IFN-γ (human PBMC; [4]): 7.8 pg/mL; IL-6 (human PBMC; [4]): 600 pg/mL; IL-12 (human PBMC; [4]): 145 pg/mL; GM-CSF (human PBMC): 45; IFN-γ (human PBMC): 7.8; IL-6 (human PBMC): 600; IL-12 (human PBMC): 250; TNF-α (human PBMC): 145"
4c (DNA TCATCGAT; chemistry not given here) [Oligonucleotide 4c],2.7 ± 1.0,–,2.7 ± 1.0,–
3Db (DNA GAGAACGCTCGACCTTCGAT; chemistry not fully specified) [Oligonucleotide 3Db],10.1 ± 2.8,25.4 ± 0.8,10.1 ± 2.8,–
3Df (DNA GAGAACGATGGACCTTCCAT; chemistry not fully specified) [Oligonucleotide 3Df],1.6 ± 0.1,7.7 ± 0.4,1.6 ± 0.1,–
1639 (DNA TCCATAACGTTCCTGATGCT; chemistry not given here) [Oligonucleotide 1639],–,–,–,"IL-6 (pg/ml) CH12.LX [1]: 1827 ± 83 pg/mL; IL-6 (pg/ml) CH12.LX [1, 2]: 1827 ± 83 pg/mL; IgM ([1]; ELISA): 9489 ± 103 ng/mL; SI (stimulation index, [3H] uridine uptake, fold increase from unstimulated control) [1]: 11.5 ± 0.4; SI (stimulation index, [3H] uridine uptake) [1]: 11.5 ± 0.4; IgM ([1]; measured by ELISA): 9439 ± 103 ng/mL; IL-6 (pg/ml) SPLENIC B CELL [1]: 2012 ± 132 pg/mL; IL-6 (pg/ml) SPLENIC B CELL [1, 2]: 2012 ± 132 pg/mL; TNF-α (human PBMC; [3]): 220 pg/mL; GM-CSF (human PBMC; [4]): 40 pg/mL; IFN-γ (human PBMC; [4]): 15.6 pg/mL; IL-6 (human PBMC; [4]): 625 pg/mL; IL-12 (human PBMC; [4]): 220 pg/mL; GM-CSF (human PBMC): 40; IFN-γ (human PBMC): 15.6; IL-6 (human PBMC): 625; IL-12 (human PBMC): 60; TNF-α (human PBMC): 220"
"2d (DNA ATCGACTCTCGAGCGTTCTC; DNA, [5mC] at 18, backbone not given here) [Oligonucleotide 2d]",7.4 ± 1.4,27.7 ± 5.4,7.4 ± 1.4,–
1634 (DNA TCCATGTCGCTCCTGATGCT; chemistry not given here) [Oligonucleotide 1634],–,–,–,"IL-6 (pg/ml) CH12.LX [1]: 1049 ± 223 pg/mL; IL-6 (pg/ml) CH12.LX [1, 2]: 1049 ± 223 pg/mL; SI (stimulation index, [3H] uridine uptake, fold increase from unstimulated control) [1]: 9.2 ± 0.9; SI (stimulation index, [3H] uridine uptake) [1]: 9.2 ± 0.9; IgM ([1]; measured by ELISA): 6256 ± 261 ng/mL; IL-6 (pg/ml) SPLENIC B CELL [1]: 1671 ± 175 pg/mL; IL-6 (pg/ml) SPLENIC B CELL [1, 2]: 1671 ± 175 pg/mL; TNF-α (human PBMC; [3]): 400 pg/mL; GM-CSF (human PBMC; [4]): 85 pg/mL; IFN-γ (human PBMC; [4]): 40 pg/mL; IL-6 (human PBMC; [4]): 300 pg/mL; IL-12 (human PBMC; [4]): 400 pg/mL; GM-CSF (human PBMC): 85; IFN-γ (human PBMC): 40; IL-6 (human PBMC): 300; IL-12 (human PBMC): 200; TNF-α (human PBMC): 400"
4e (DNA CAACGTT; chemistry not fully specified) [Oligonucleotide 4e],1.3 ± 0.2,1.1 ± 0.5,1.3 ± 0.2,–
"All-(Rp)-d[GsCsCsTsCsAsGsTsCsTsGsCsTsTsCsGsCsAsCsC] (DNA GCCTCAGTCTGCTTCGCACC; DNA, all [Rp], methylation of C not given here) [Oligonucleotide 101]",2.9 ± 0.2,13.6 ± 2.0,2.9 ± 0.2,–
"1d (DNA GCATGACGTTGAGCT; DNA, backbone not given here; further chemistry not fully specified) [Oligonucleotide 1d]",13.0 ± 2.3,18.3 ± 7.5,13.0 ± 2.3,–
3Dc (DNA GAGCAAGCTGGACCTTCCAT; chemistry not fully specified) [Oligonucleotide 3Dc],1.0 ± 0.1,1.2 ± 0.5,1.0 ± 0.1,–
4g (DNA AACGTTCT; chemistry not given here) [Oligonucleotide 4g],1.4 ± 0.3,–,1.4 ± 0.3,–
2c (DNA ATCGACTCTCGAGCGTTCTC; chemistry not fully specified) [Oligonucleotide 2c],3.1 ± 0.6,7.3 ± 1.4,3.1 ± 0.6,–
"1b (DNA GCTAGACGTTAGCGT; Z modified cytosine, further chemistry not given here) [Oligonucleotide 1b]",1.2 ± 0.1,1.8 ± 0.0,1.2 ± 0.1,–
3D (DNA GAGAACGCTGGACCTTCCAT; chemistry not fully specified) [Oligonucleotide 3D],4.9 ± 0.5,19.9 ± 3.6,4.9 ± 0.5,–
3Me (DNA TCCATGTCGGTCCTGCTGAT; chemistry not given here) [Oligonucleotide 3Me],3.6 ± 0.2,14.2 ± 5.2,3.6 ± 0.2,–
4h (DNA TCAACGTC; chemistry not fully specified) [Oligonucleotide 4h],1.2 ± 0.2,–,1.2 ± 0.2,–
4d (DNA TCTTCGAA; chemistry not fully specified) [Oligonucleotide 4d],1.3 ± 0.2,–,1.3 ± 0.2,–
"3Mc (DNA TCCATGTCGGTCCTGATGCT; Z modified cytosine, further chemistry not given here) [Oligonucleotide 3Mc]",5.4 ± 1.5,8.5 ± 2.6,5.4 ± 1.5,–
4b (DNA TCAGCGCT; chemistry not fully specified) [Oligonucleotide 4b],4.5 ± 0.2,9.6 ± 3.4,4.5 ± 0.2,–
4f (DNA CCAACGTT; chemistry not fully specified) [Oligonucleotide 4f],3.9 ± 1.4,–,3.9 ± 1.4,–
3Ma (DNA TCCATGCTGGTCCTGATGCT; chemistry not fully specified) [Oligonucleotide 3Ma],0.9 ± 0.1,1.8 ± 0.5,0.9 ± 0.1,–
3Md (DNA TCCATGACGTTCCTGATGCT; chemistry not given here) [Oligonucleotide 3Md],17.2 ± 9.4,–,17.2 ± 9.4,–
